One may read the IC50 as the point on the concentration scale where inhibition reaches its midpoint. Low values mean greater potency, high ones weaker potency. By ED50 is commonly meant the dose at which the effect has come halfway, by size or by number of responders. The term inhibition denotes the change of the read-out against control, counted positive when it falls.

These results are taken from patent US20030109522A1, “Ophthalmologic treatment methods using selective iNOS inhibitors” (priority 2001, published 2003).

Structures can show the parent of a compound that is named as a salt. Where two headings read alike, the source gives them in different places.

Experiment [1] addresses T1, Human inducible NOS (hiNOS) (Homo sapiens, UniProt P35228).
T1 construct: made in house; host or cells: Sf9 insect cells, baculovirus vector
The experiment in a line: Citrulline assay for nitric oxide synthase, hiNOS. The class given is biochemical. As to conditions: averages across all experiments and all lots; 30 μM L-arginine.
Experimental: (§3) Citrulline Assay for Nitric Oxide Synthase
(§4) To measure NOS activity, 10 μL of enzyme is added to 40 μL of 50 mM Tris (pH 7.6) in the presence or absence of test compounds and the reaction initiated by the addition of 50 μL of a reaction mixture containing 50 mM Tris (pH 7.6), 2.0 mg/mL bovine serum albumin, 2.0 mM DTT, 4.0 mM CaCl2, 20 μM FAD, 100 μM tetrahydrobiopterin, 0.4 mM NADPH and 60 μL-arginine containing 0.9 μCi of L-[2,3-^3H]-arginine. The final concentration of L-arginine in the assay is 30 μM. For hecNOS or hncNOS, calmodulin is included at a final concentration of 40-100 nM. Following incubation at 37° C. for 15 minutes, the reaction is terminated by addition of 400 μL of a suspension (1 part resin, 3 parts buffer) of Dowex 50W X-8 cation exchange resin in a stop buffer containing 10 mM EGTA, 100 mM HEPES, pH 5.5 and 1 mM L-citrulline. After mixing the resin is allowed to settle and L-[2,3-^3H]-Citrulline formation is determined by counting aliquots of the supernatant with a liquid scintillation counter.

Experiment [2] concerns the target T2, human endothelial constitutive NOS (hecNOS) (Homo sapiens, UniProt P29474).
T2 construct: made in house; host or cells: Sf9 insect cells, baculovirus vector
The experiment in a line: Citrulline assay for nitric oxide synthase, hecNOS. The class given is biochemical. The following applies: averages across all experiments and all lots; 30 μM L-arginine.
Experimental: as §3, §4

Experiment [3] deals with T3, human neuronal constitutive NOS (hncNOS) (Homo sapiens, UniProt P29475).
T3 construct: made in house; host or cells: Sf9 insect cells, baculovirus vector
The experiment can be described thus: Citrulline assay for nitric oxide synthase, hncNOS. The experiment is classed as biochemical. As to conditions: averages across all experiments and all lots; 30 μM L-arginine.
Experimental: as §3, §4

Experiment [4] concerns nitrite production in human cartilage explants. The experiment in a line: Human cartilage explant assay (IL-1 induced nitrite production). As to conditions: inhibition of nitrite production, IL-1 stimulated explants. The class given is cell-based. As to the method:
Human Cartilage Explant Assay
Bone pieces are rinsed twice with Dulbecco's Phosphate Buffered Saline (GibcoBRL) and once with Dulbecco's Modified Eagles Medium (GibcoBRL) and placed into a petri dish with phenol red free Minimum Essential Medium (MEM) (GibcoBRL). Cartilage was cut into small explants of approximately 15-45 mg in weight and one or two explants per well are placed into either 96 or 48 well culture plates with 200-500 μL of culture media per well. The culture media was either a custom modification of Minimum Essential Medium(Eagle) with Earle's salts (GibcoBRL) prepared without L-Arginine, without L-Glutamine and without phenol red or a custom modification of serumless Neuman and Tytell (GibcoBRL) medium prepared without L-arginine, without insulin, without ascorbic acid, without L-glutamine and without phenol red. Both are supplemented before use with 100 μM L-Arginine (Sigma), 2 mM L-glutamine, 1×HL-1 supplement (BioWhittaker), […] ascorbic acid (Sigma) and 150 pg/ml recombinant human IL-1[…] (RD Systems) to induce nitric oxide synthase. Compounds are then added in 10 μL aliquots and the explants incubated at 37° C. with 5% CO2 for 18-24 hours. The day old supernatant is then discarded and replaced with fresh culture media containing recombinant human IL-1 ? and compound and incubated for another 20-24 hours. […] All samples are done in quadruplicate. Unstimulated controls are cultured in media in the absence of recombinant human IL-1[…]. IC50 values (Table I) are determined from plotting the percent inhibition of nitrite production at six different concentrations of inhibitor.

Experiment [5] has as its system LPS-induced increase in plasma nitrite/nitrate levels. The experiment can be described thus: In vivo assay, endotoxin-treated rats. As to conditions: administered orally, plasma nitrite/nitrate 5 hours post-treatment. As to the method:
Plasma nitrite/nitrate levels can be determined 5 hours post-treatment.

Experiment [6] concerns the target T4, hiNOS (Homo sapiens, UniProt P35228).
T4 construct: made in house; host or cells: Sf9 insect cells, baculovirus vector
The experiment in a line: Assay for time dependent inhibition, hiNOS. The class given is biochemical. As for the experimental part: (§1) Assay for Time Dependent Inhibition
(§2) Aliquots (10 μL) are removed at 0, 10,21 and 60 minutes and immediately added to a citrulline assay enzyme reaction mixture containing L-[2,3-^3H]-arginine and a final L-arginine concentration of 30 μM in a final volume of 100 μL. The reaction is allowed to proceed for 15 minutes at 37° C. and terminated by addition of stop buffer and chromatography with Dowex 50W X-8 cation exchange ion exchange resin as described for the citrulline NOS assay. The % inhibition of NOS activity by an inhibitor was taken as the percent inhibition in activity compared to control enzyme preincubated for the same time in the absence of inhibitor.

Experiment [7] deals with T5, hecNOS (Homo sapiens, UniProt P29474).
T5 construct: made in house; host or cells: Sf9 insect cells, baculovirus vector
The experiment can be described thus: Assay for time dependent inhibition, hecNOS. The class given is biochemical. As for the experimental part: as §1, §2

In experiment [8] the target is T6, hncNOS (Homo sapiens, UniProt P29475).
T6 construct: made in house; host or cells: Sf9 insect cells, baculovirus vector
The experiment can be described thus: Assay for time dependent inhibition, hncNOS. The following applies: 21 min preincubation. The experiment is classed as biochemical. As for the experimental part:
as §1, §2

[9] abbreviates: Rattus norvegicus, po, read-out: ED50.

T2 sequence (P29474 2-1203): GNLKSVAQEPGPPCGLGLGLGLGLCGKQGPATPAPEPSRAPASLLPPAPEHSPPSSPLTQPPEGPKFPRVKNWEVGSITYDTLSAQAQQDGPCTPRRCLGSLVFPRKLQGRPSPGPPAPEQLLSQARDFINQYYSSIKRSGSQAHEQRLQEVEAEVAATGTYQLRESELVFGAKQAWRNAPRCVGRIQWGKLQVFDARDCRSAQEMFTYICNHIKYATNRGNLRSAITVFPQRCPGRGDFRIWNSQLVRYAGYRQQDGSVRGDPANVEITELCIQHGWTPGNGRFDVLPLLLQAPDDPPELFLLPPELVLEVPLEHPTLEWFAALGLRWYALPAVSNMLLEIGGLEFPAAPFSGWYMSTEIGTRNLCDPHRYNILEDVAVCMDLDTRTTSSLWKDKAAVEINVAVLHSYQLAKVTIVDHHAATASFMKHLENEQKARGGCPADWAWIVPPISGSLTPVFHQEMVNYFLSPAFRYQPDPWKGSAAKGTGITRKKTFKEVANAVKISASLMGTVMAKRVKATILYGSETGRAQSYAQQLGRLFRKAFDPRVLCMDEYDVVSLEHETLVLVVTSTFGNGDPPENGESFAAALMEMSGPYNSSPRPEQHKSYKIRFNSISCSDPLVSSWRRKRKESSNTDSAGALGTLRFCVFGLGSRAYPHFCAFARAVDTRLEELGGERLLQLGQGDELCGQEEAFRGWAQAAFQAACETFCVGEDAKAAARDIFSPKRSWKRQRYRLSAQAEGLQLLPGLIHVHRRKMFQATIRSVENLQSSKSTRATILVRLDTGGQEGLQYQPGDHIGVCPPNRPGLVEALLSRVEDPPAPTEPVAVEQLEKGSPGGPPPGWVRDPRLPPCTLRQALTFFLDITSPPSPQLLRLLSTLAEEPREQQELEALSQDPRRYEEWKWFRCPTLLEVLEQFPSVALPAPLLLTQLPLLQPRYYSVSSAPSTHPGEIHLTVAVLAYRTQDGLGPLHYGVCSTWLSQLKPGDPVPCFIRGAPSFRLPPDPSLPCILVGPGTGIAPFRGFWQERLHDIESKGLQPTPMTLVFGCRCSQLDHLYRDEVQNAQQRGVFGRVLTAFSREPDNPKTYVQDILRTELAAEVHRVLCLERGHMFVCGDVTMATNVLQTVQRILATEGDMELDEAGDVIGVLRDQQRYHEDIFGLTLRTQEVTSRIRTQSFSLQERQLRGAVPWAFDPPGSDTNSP
T3 sequence (P29475 whole entry): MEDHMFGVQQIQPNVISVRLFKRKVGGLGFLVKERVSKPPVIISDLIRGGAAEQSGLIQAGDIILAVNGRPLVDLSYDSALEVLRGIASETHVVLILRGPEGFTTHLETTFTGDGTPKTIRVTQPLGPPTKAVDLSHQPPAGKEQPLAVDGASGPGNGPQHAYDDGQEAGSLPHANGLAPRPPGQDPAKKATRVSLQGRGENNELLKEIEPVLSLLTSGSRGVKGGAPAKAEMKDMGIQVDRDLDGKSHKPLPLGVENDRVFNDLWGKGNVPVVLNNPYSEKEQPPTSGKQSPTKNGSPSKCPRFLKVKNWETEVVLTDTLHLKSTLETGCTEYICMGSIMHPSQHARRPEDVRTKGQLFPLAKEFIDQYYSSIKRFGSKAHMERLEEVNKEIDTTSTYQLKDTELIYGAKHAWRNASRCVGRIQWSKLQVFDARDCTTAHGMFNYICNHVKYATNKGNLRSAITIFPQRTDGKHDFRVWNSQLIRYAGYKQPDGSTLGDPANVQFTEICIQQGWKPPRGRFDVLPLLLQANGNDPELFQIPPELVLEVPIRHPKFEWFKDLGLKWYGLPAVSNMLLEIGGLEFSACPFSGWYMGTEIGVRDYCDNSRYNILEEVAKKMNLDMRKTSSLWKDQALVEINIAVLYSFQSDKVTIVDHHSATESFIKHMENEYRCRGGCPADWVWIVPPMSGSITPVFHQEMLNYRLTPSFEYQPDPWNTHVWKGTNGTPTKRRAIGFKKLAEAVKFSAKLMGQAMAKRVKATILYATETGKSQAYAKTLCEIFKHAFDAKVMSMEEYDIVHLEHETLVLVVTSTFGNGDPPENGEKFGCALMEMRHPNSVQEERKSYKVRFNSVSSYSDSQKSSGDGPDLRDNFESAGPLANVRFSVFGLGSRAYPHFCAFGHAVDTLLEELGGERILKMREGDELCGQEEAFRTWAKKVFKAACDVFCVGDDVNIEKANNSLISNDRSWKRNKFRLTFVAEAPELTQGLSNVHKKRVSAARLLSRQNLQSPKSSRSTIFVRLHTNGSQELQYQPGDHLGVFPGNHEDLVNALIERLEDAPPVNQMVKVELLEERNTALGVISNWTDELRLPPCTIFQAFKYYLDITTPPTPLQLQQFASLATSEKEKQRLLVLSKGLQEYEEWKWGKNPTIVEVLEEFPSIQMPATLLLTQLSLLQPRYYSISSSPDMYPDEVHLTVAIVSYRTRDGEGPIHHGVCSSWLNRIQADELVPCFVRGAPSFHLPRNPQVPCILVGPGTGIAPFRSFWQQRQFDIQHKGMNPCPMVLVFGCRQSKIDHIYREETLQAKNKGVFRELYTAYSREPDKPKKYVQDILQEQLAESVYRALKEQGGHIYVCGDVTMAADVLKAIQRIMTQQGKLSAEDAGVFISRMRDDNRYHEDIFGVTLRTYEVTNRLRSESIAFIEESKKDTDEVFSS
T1 sequence (P35228 whole entry): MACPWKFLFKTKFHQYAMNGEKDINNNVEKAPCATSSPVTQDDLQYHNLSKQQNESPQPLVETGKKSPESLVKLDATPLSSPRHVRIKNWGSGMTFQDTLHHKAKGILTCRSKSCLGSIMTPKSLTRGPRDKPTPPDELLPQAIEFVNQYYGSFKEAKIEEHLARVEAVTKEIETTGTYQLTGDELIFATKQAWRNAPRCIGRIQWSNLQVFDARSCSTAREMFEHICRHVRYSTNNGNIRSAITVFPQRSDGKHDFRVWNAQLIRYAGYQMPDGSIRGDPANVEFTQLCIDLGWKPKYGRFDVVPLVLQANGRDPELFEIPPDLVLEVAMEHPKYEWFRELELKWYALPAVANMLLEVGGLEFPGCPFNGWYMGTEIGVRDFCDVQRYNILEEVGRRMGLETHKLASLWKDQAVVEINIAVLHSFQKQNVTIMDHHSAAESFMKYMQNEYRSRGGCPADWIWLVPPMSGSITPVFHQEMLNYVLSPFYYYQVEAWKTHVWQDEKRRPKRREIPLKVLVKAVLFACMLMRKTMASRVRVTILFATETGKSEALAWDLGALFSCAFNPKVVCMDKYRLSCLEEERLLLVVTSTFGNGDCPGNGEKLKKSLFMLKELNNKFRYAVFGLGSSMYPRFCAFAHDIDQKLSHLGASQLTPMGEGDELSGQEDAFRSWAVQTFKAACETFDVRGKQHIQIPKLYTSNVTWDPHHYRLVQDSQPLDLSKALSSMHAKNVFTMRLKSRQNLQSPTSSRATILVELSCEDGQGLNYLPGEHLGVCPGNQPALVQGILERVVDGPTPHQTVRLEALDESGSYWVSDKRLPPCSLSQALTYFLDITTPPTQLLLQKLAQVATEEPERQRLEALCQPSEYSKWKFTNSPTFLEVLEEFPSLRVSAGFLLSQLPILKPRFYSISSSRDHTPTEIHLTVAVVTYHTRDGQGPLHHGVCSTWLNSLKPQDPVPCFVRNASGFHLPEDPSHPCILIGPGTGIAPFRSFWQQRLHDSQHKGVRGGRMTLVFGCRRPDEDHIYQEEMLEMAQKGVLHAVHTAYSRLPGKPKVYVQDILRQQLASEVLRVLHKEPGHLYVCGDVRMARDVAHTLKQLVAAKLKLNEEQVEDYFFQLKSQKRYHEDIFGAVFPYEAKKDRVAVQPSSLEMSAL

Regarding `CC(=N)NC/C=C/C[C@@](C)(N)C(=O)O` [Example DD, (R, E)-2-amino-2-methyl-6-[(1-iminoethyl)amino]-4-hexenoic Acid, Dihydrochloride], the half-maximal inhibitory concentration (IC50) in experiment [1] was determined as 10 µM; in experiment [2], 74 µM; in experiment [3], 31 µM; in experiment [4] (Homo sapiens), 1.8 µM.

Regarding `CC(=N)NC/C(F)=C\CC[C@@](C)(N)C(=O)O` [Example JJ, (2R,5E)-2-amino-2-methyl-6-fluoro-7-[(1-iminoethyl)amino]-5-heptenoic Acid, Dihydrochloride], the half-maximal inhibitory concentration (IC50) amounted to 56 µM in experiment [1], 352 µM in experiment [2] and 584 µM in experiment [3].

On to `CC(=N)NC/C(F)=C\CC[C@](C)(N)C(=O)O.Cl.Cl` [Example HH, (2S,5E)-2-amino-2-methyl-6-fluoro-7-[(1-iminoethyl)amino]-5-heptenoic Acid, Dihydrochloride], for which the IC50 in experiment [1] was determined as 0.4 µM; in experiment [2], 37 µM; in experiment [3], 7.6 µM; in experiment [4] (Homo sapiens) it was 0.4 µM. In addition, the ED50 in experiment [5] (setting [9]) was 0.4 mg/kg.

In experiment [4], `COC[C@](N)(CSCCNC(C)=N)C(=O)O` [Example J, 2-[[[2-1(1-Iminoethyl)amino]ethyl]thiolmethyl]-O-methyl-D-serine, Dihydrochloride] registered an IC50 of 8.2 µM.

Consider `N=C1CCCC[C@@H](CCCC[C@H](N)C(=O)O)N1` [Example W, ([…]S,2R)-[…]-aminohexahydro-7-imino-1H-azepine-2-hexanoic Acid, Trihydrate Hydrochloride], for which the half-inhibitory concentration (IC50) in experiment [4] (Homo sapiens) was above 30 µM. The ED50 in experiment [5] (setting [9]) was above 10 mg/kg. The inhibition at 4.2 µM is 34% in experiment [6] (21 min preincubation) and 38% in experiment [6] (60 min preincubation). Further, the inhibition at 173 µM in experiment [7] (21 min preincubation) is 9%; in experiment [7] (60 min preincubation) it was 0%. Also, the inhibition at 13 µM in experiment [8] (13 μM) is 0%.

With `N=C1CCCC[C@H](C/C=C/C[C@H](N)C(=O)O)N1` [Example BB, (2S,4E)-2-amino-6-[(2R)-hexahydro-7-imino-1H-azepin-2-yl]-4-hexenoic Acid], the concentration for half-maximal inhibition (IC50) in experiment [1] was below 10 µM; in experiment [2] it was above 25 µM; in experiment [3], below 10 µM.

Regarding `CC(=N)NC/C(F)=C\CC[C@H](N)C(=O)Nc1nnn[nH]1` [Example H, (2S,5E)-2-amino-6-fluoro-7-[(1-iminoethyl)amino]-N-(1H-tetrazol-5-yl) 5-heptenamide, Dihydrochloride], the 50% effective dose (ED50) in experiment [5] (setting [9]) was below 0.3 mg/kg.

Turning to `CC(=N)NC/C(F)=C\CC[C@H](N)C(=O)O` [Example A, (2S,5E)-2-amino-6-fluoro-7-[(1-iminoethyl)amino]-5-heptenoic Acid, Dihydrochloride, Monohydrate], in experiment [4] (Homo sapiens), half-maximal inhibition (IC50) required 0.1 µM. Further, the 50% effective dose (ED50) was below 0.1 mg/kg in experiment [5] (setting [9]) and below 0.1 mg/kg in experiment [5] (Dihydrochloride, Monohydrate).

For `CC(=N)NC/C=C/C[C@](C)(N)C(=O)O` [Example EE, (S, E)-2-amino-2-methyl-6-[(1-iminoethyl)amino]-4-hexenoic Acid, Dihydrochloride], the half-maximal inhibitory concentration (IC50) in experiment [1] turned out to be 1.4 µM; in experiment [2] it was 18 µM; in experiment [3], 5.8 µM; in experiment [4] (Homo sapiens), 0.5 µM. Further, the ED50 in experiment [5] (setting [9]) turned out to be 0.2 mg/kg.

`CC(=N)NC/C(F)=C/CC[C@H](N)C(=O)O` [Example D, (2S,5Z)-2-amino-6-fluoro-7-[(1-iminoethyl)amino]-5-heptenoic Acid, Trihydrochloride, Dihydrate] registered an IC50 in experiment [4] (Homo sapiens) of 2.5 µM. Further, the median effective dose (ED50) in experiment [5] (setting [9]) was above 10 mg/kg.

In the case of `CC(=N)NC/C(F)=C\CCC(C)(N)C(=O)O` (racemic) [Example KK, (2R/S,5E)-2-amino-2-methyl-6-fluoro-7-[(1-iminoethyl)amino]-5-heptenoic Acid, Dihydrochloride], the results for the concentration for half-maximal inhibition (IC50) in experiment [1], in experiment [2] and in experiment [3] were 0.57 µM, 52 µM and 13 µM, respectively. In addition, the ED50 in experiment [5] (setting [9]) was 0.3 mg/kg.

Turning to `CC(=N)NCC#CCC(C)(N)C(=O)O` (centres unmarked) [Example FF, 2-amino-2-methyl-6-[(1-iminoethyl)amino]-4-hexynoic Acid, Dihydrochloride], the IC50 amounted to 16 µM in experiment [1], 86 µM in experiment [2] and 45 µM in experiment [3].

As to `CC(=N)NC/C=C\CC[C@@](C)(N)C(=O)O` [Example MM, (2R,5Z)-2-amino-2-methyl-7-[(1-iminoethyl)amino]-5-heptenoic Acid, Dihydrochloride], the 50% inhibitory concentration (IC50) in experiment [1] worked out at 121 µM; in experiment [2], 1930 µM; in experiment [3], 1480 µM.

In the case of `CC(=N)NCC(F)=CCC[C@H](N)C(=O)O` (mixture of isomers) [Example B, (2S,5E/Z)-2-amino-6-fluoro-7-[(1-iminoethyl)amino]-5-heptenoic Acid, Dihydrochloride], the IC50 in experiment [4] (Homo sapiens) stood at 0.2 µM.

In experiment [4] (Homo sapiens), `N=C1CCCC[C@H](CCCC[C@@H](N)C(=O)O)N1` [Example V, ([…]R,2S)-[…]-aminohexahydro-7-imino-1H-azepine-2-hexanoic Acid, Trihydrate Hydrochloride] returned an IC50 below 10 µM. For the same molecule, the ED50 in experiment [5] (setting [9]) was below 3 mg/kg.

As for `CC(=N)NC/C=C\CC[C@](C)(N)C(=O)O.Cl.Cl` [Example LL, (2S,5Z)-2-amino-2-methyl-7-[(1-iminoethyl)amino]-5-heptenoic Acid, Dihydrochloride], the IC50 in experiment [1] stood at 0.7 µM; in experiment [2] it was 31 µM; in experiment [3], 12 µM; in experiment [4] (Homo sapiens), 0.8 µM. Further, in experiment [5] (setting [9]), the 50% effective dose (ED50) is 0.3 mg/kg.

`N=C1CCCC[C@H](CCCC[C@@H](N)C(=O)O)N1` [Example Y, ([…]R,2S)-[…]-aminohexahydro-7-imino-1H-azepine-2-hexanoic Acid, Trihydrate Hydrochloride] had an IC50 in experiment [4] below 10 µM. For the same molecule, the inhibition at 2.8 µM in experiment [6] (21 min preincubation) turned out to be 75%; in experiment [6] (60 min preincubation) it was 76%. Moreover, the inhibition at 33 µM in experiment [7] (21 min preincubation) and in experiment [7] (60 min preincubation) was 11% throughout. In experiment [8] (5 μM), 5 µM produced 0% inhibition.

For the molecule `N=C1CCCC[C@H](CCCC[C@H](N)C(=O)O)N1` [Example X, ([…]S,2S)-[…]-aminohexahydro-7-imino-1H-azepine-2-hexanoic Acid, Trihydrate Hydrochloride], the IC50 in experiment [4] (Homo sapiens) was below 10 µM.

In the case of `N=C1CCCC[C@H](CCCC[C@H](N)C(=O)O)N1` [Example Z, ([…]S,2S)-[…]-aminohexahydro-7-imino-1H-azepine-2-hexanoic Acid, Trihydrate Hydrochloride], in experiment [5] (setting [9]), the ED50 was below 5 mg/kg. The inhibition at 2.2 µM turned out to be 86% in experiment [6] (21 min preincubation) and 85% in experiment [6] (60 min preincubation). Also, the inhibition at 15 µM in experiment [7] (21 min preincubation) was 18%; in experiment [7] (60 min preincubation) it was 16%. Testing at 3 µM in experiment [8] (3 μM) gave an inhibition of 0%.

Take `CC(=N)NC/C=C/CC(C)(N)C(=O)O` (centres unmarked) [Example CC, (E)-2-amino-2-methyl-6-[(1-iminoethyl)amino]-4-hexenoic Acid, Dihydrochloride]: the 50% inhibitory concentration (IC50) in experiment [1] was 2.9 µM; in experiment [2], 29 µM; in experiment [3], 9.9 µM; in experiment [4] (Homo sapiens) it was 0.5 µM. In addition, the median effective dose (ED50) in experiment [5] (setting [9]) was below 3 mg/kg.

`CC(=N)NC/C=C\CC[C@H](N)C(=O)O` [Example T, (2S,5Z)-2-amino-7-[(1-iminoethyl)amino]-5-heptenoic Acid, Dihydrochloride]: half-maximal inhibition in experiment [4] (Homo sapiens) (IC50) was put at 0.1 µM. In other words, the sub-micromolar range.
